Tested on: five species mix of representative oral bacterial species
Assay: resazurin cell viability assay (bacterial metabolism/viability)
Experimental: A five species mix of representative oral bacterial species was used to simulate the complex bacterial flora of the oral environment. A bacterial mix comprising Actinomyces viscosus, Lactobacillus casei, Streptococcus oralis, Fusobacteriaum nucleatum and Veillonella parvulal was incubated with the compound under investigation for 1 hour at 37° C., neutralized, washed and stained with 50 μg/ml resazurin solution. When viable bacteria are incubated with resazurin, the blue non-fluorescent dye is reduced by the bacteria to pink fluorescent resorufin. Fluorescence of the test sample is read at 560 nm excitation/590 nm emission and compared to the fluorescence of a standardized mixture of live and dead bacteria to determine the percentage of the initial population that is viable after incubation.
In order to minimize the effects of formula excipients, dilute 1:100 and 1:10 dentifrice slurries of formulations in water were used in the assay. As before, the test compound (as a dilute slurry) was incubated with the bacteria for 1 hour at 37° C., neutralized, washed and stained with 50 μg/ml resazurin solution. The percentage of viable bacteria was then determined.

| Substance | % bacteria viable following treatment (aqueous test solutions, incubated 1 hour at 37° C., resazurin 50 μg/ml, fluorescence 560/590 nm) [%] | antibacterial efficacy compared with comparators (in words) (solutions of Example 1, Table 1) |
| --- | --- | --- |
| sodium lauryl ether sulfate [0.5 wt. % SLES] | 19.94 | – |
| zinc coceth sulfate [0.5 wt. % ZCS] | – | significantly more efficacious than surfactant alone or an aqueous solution of 0.8 wt. % total elemental zinc |

From US10736831B2, “Oral care compositions” (Colgate-Palmolive Company, priority 2015, dated 2020)
